In one data set the test system is Opiate, Delta 1. Briefly: Opiate Delta 1 receptor binding assay.
For another data set, the system named is pain. Briefly: Pain relief (PID / categorical pain scores) compared with blood plasma levels. The data set is classed as in vivo. As to conditions: based on the pharmacokinetic studies. On the procedure:
(§1) In separate studies, blood plasma levels and indications of pain relief were recorded over a 12 hour period. FIGS. 1-4 show graphical representation of the data combining the two studies such that the effect of blood plasma levels on pain can be evaluated.
The amount administered will be dependent upon normal criteria such as patient weight, intensity of pain, and other factors. Based on the pharmacokinetic studies blood plasma levels around at least 0.05 ng/mL will provide some analgesia. The upper plasma level limit will be ultimately established by safety concerns. […] Subsequent doses may be required to maintain these blood levels.

Data set [1] can be described thus: Pharmacokinetic study: blood plasma levels over 12 hours after administration of oxymorphone. It counts as in vivo. As for the experimental part: as §1
After this time, oxymorphone levels again drop and eventually fall to levels near the earlier plateau.

The target in data set [2] is T1, Opiate, Kappa (Human Recombinant) (Homo sapiens, UniProt P41145).
T1 construct: expressed in transfected cells
Briefly: Opiate Kappa receptor binding assay.

For data set [3], the target named is T2, Opiate, Delta 2 (Human Recombinant) (Homo sapiens, UniProt P41143).
T2 construct: expressed in transfected cells
Briefly: Opiate Delta 2 receptor binding assay.

The target in data set [4] is T3, Opiate, Mu (Human Recombinant) (Homo sapiens, UniProt P35372).
T3 construct: expressed in transfected cells
Nature of the data set: Opiate Mu receptor binding assay.

Molecules are shown by their SMILES.

T2 sequence (P41143 whole entry): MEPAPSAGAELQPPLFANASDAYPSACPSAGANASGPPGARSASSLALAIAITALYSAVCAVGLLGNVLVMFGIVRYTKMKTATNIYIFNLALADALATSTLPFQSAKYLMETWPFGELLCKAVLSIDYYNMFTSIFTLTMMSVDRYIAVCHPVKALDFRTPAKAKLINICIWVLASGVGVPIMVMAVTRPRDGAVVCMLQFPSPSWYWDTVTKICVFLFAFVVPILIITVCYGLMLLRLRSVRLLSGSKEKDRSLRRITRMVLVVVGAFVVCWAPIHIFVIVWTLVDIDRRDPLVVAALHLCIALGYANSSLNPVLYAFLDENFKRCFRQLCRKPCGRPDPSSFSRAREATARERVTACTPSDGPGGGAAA
T1 sequence (P41145 whole entry): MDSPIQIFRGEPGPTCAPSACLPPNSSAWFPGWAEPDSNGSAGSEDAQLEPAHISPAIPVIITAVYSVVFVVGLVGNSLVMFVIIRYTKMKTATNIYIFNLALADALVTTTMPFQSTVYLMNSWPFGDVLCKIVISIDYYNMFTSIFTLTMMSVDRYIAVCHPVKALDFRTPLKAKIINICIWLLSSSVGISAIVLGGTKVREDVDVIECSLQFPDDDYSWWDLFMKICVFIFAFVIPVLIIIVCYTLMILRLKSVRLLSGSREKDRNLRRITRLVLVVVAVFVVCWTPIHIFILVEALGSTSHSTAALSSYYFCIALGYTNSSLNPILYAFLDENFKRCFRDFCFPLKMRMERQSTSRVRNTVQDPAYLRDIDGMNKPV
T3 sequence (P35372 whole entry): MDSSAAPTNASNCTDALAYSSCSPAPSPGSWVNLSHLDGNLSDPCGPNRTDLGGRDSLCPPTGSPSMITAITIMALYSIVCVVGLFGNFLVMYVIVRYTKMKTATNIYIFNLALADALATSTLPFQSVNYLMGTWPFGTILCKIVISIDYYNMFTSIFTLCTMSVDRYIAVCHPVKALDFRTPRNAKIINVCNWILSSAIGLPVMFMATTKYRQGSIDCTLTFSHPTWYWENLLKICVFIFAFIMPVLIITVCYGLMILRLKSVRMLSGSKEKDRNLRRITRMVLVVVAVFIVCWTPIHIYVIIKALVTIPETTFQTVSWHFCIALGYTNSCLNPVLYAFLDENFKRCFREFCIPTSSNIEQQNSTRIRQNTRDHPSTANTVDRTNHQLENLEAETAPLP

With `CN1CC[C@]23c4c5ccc(O)c4O[C@H]2C(O)CC[C@@]3(O)[C@H]1C5` (stereo partly shown) [6-hydroxy oxymorphone], the “binding, Opiate Delta 1” value in the data set with Opiate, Delta 1 (10 nm (1.0 E−8)) is reported as −4.12%; in the data set on Opiate, Delta 1 (10 μm (1.0 E−5)) it was 90.48%. The “blood plasma level that will provide some analgesia” value in the data set on pain is given as “at least 0.05 ng/mL”. Further, in data set [1] (after administration of oxymorphone), the “time of peak blood plasma level” value is at most 2 h. Moreover, the results for the “binding, Opiate Kappa (Human Recombinant)” value in data set [2] (10 nm (1.0 E−8)) and in data set [2] (10 μm (1.0 E−5)) were 2.45% and 62.47%, respectively. Moreover, the “binding, Opiate Delta 2 (Human Recombinant)” value in data set [3] (10 nm (1.0 E−8)) was 7.19%; in data set [3] (10 μm (1.0 E−5)) it was 55.45%. For the same molecule, the “binding, Opiate Mu (Human Recombinant)” value in data set [4] (10 nm (1.0 E−8)) was 63.16%; in data set [4] (10 μm (1.0 E−5)), 99.91%.

Take `CN1CC[C@]23c4c5ccc(O)c4O[C@H]2C(=O)CC[C@@]3(O)[C@H]1C5` [oxymorphone]: the “binding, Opiate Delta 1” value with Opiate, Delta 1 (10 nm (1.0 E−8)) is on record as −18.26%; in the data set with Opiate, Delta 1 (10 μm (1.0 E−5)), 89.03%. For the same molecule, the “time of second spike of blood plasma level” value in data set [1] (from administration of oxymorphone) was in the range of 4 to 6 h.

For the origin of these results see US20040214849A1, “Parenteral administration of 6-hydroxy-oxymorphone for use as an analgesic” (priority 2001, published 2004).
